Measured values: PMC5007552, “The hVps34‐SGK3 pathway alleviates sustained PI3K/Akt inhibition by stimulating mTORC1 and tumour growth” (The EMBO Journal, 2016)

Legend:
BT-474 xenograft tumours = assay: Cleaved caspase-3 immunohistochemistry of xenograft tumours; format: in vivo, mice; conditions: end of treatment, 4 h after last dosage
Description: Figure 8 Dual treatment with Akt and SGK inhibitors reduces tumour growth in BT‐474 xenograft model • BT‐474 cells were treated for the indicated times with 0.3 μM MK‐2206. The cell lysates were analysed by immunoblot using the indicated antibodies. • BT‐474c cells were treated with inhibitors as indicated either as monotherapy or in combination and cell confluency measured on the Incucyte ZOOM every 4 h for up to 4 weeks. • BT‐474 cells were injected subcutaneously into athymic Foxn1 ^nu nude mice. […] The tumour volume was measured twice a week. Tumour growth is represented as the fold change mean ± SEM. • All mice were weighed at the end of the treatments. […] Apoptotic cells were counted in 25 fields per condition (left panel) and quantified as clCasp3‐positive cells/field (right panel). […] Six different tumours were analysed from each treatment group and each line represents one tumour sample. […]
Experiments involving mice were in accordance with Institutional Guidelines of Memorial Sloan Kettering Cancer Center (Protocol number 12‐10‐019). […] When tumours reached a volume of ~150 mm^3, mice were randomised, treated, and tumours were measured twice a week. Tumour volume was determined using the following formula: (length × width^2) ÷ 2. […]

PKBa = PKBa (Homo sapiens, UniProt P31749); assay: IC50 on recombinant PKBa (Akt1); format: biochemical; conditions: Fig 5B / Appendix Fig S1B, recombinant kinase, unit inferred
Description: (§1) The result for each kinase is presented as a mean kinase activity of the reaction taken in triplicate relative to a control reaction where the inhibitors were omitted. […] SGK3 was immunoprecipitated from cell lysates and subjected to in vitro kinase assay by measuring phosphorylation of the Crosstide substrate peptide in the presence of 0.1 mM [γ‐^32P]ATP in a 30 min 30°C reaction (upper panel). Kinase reactions are presented as means ± SD for triplicate reaction.
(§2) Appendix Figure S1. […] (A) Chemical struc tures of
(§3) Sano/f_i-14g, -14i and -14n compounds. (B) IC50 values of inhibitors on indicated recombinant k inases. […]

S6K1 = S6K1 (Homo sapiens, UniProt P23443); assay: IC50 on recombinant S6K1 (p70S6K); format: biochemical; conditions: Fig 5B / Appendix Fig S1B, recombinant kinase, unit inferred
Description: as §1, §2, §3

S6K1, sequence (P23443 whole entry): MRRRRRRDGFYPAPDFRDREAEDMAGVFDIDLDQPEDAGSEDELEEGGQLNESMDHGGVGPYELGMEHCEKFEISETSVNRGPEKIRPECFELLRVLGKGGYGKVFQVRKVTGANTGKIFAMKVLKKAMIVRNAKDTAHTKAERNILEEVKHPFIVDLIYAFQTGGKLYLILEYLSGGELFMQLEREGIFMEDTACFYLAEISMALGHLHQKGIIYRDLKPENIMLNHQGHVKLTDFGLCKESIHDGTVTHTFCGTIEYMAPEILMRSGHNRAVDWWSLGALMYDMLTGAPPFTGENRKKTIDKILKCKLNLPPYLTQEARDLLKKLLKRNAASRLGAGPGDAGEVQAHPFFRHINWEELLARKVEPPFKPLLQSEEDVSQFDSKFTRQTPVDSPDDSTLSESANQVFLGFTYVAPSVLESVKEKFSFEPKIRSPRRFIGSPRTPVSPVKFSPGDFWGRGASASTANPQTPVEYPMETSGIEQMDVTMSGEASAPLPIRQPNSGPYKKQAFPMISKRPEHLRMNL
PKBa, sequence (P31749 whole entry): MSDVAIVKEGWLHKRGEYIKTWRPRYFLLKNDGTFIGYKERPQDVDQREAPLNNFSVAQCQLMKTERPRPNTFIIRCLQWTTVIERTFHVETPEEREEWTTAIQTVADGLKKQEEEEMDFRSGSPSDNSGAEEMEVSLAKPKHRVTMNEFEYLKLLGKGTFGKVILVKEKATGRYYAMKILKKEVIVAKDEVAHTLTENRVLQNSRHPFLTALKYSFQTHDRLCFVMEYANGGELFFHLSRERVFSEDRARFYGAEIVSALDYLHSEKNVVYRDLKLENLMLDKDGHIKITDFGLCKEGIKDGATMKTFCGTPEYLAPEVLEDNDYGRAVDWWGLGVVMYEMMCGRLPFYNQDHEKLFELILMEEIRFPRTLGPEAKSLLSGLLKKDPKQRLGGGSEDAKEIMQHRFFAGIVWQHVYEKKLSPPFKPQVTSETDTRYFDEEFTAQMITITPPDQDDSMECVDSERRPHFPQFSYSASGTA

NC1(c2ccc(-c3nc4ccn5c(=O)[nH]nc5c4cc3-c3ccccc3)cc2)CCC1 [MK-2206]
number of apoptotic (cleaved caspase-3 positive) cells in tumours (BT-474 xenograft tumours): increased number of apoptotic cells

Nc1n[nH]c2nc(-c3ccc(NS(=O)(=O)c4cc(Cl)ccc4Cl)cc3)cnc12 [14h]
IC50 (PKBa): > 10000 nM
IC50 (S6K1): 76 nM
